Measurements from EP3046573B1, “AMYLIN ANALOGUES” (Zealand Pharma A/S, priority 2013, dated 2015).
Where two headings read alike, the source gives them in different places. Numbered stars: 1 amine (or outer) side, 2 acyl side, 3 side chain; on linkers, the order of the positions; unused ones are H or OH. Bridge positions count the residues as written; N and C are the ends. Square brackets hold non-standard residues; d marks the D form. Peptide text beside a SMILES is read from it. * marks the point of attachment. C20 diacid = O=C(O)CCCCCCCCCCCCCCCCCCC(=O)*; γGlu = O=C(O)[C@H](CCC(=O)[*:2])N[*:1]; NMeI = CC[C@H](C)[C@H](NC)C(=O)O; Sar = CNCC(=O)O

What was measured:
[1] = Solubility assessment (turbidity absorbance at 325 nm); format: physicochemical; settings: stock 2 mg/ml diluted 1:1, ambient temperature (typically 25°C), n=1; for Solubility, Acetate buffer pH 4: 100 mM acetate buffer pH 4.0; for Solubility, Acetate buffer pH 5: 100 mM acetate buffer pH 5.0; for Solubility, Histidine buffer pH 6: 100 mM histidine buffer pH 6.0; for Solubility, Histidine buffer pH 7: 100 mM histidine buffer pH 7.0; for Solubility, Phosphate buffer pH 6: 100 mM phosphate buffer pH 6.0; for Solubility, Phosphate buffer pH 7: 100 mM phosphate buffer pH 7.0; for Solubility, Phosphate buffer pH 7.5: 100 mM phosphate buffer pH7.5
Outline: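 Read-out: turbidity as absorbance at 325 nm (280 nm also read), single samples, ambient temperature of typically 25°C. Samples were a 1:1 mix of 2 mg/ml stock (water, pH 2.5) with 100 mM acetate, histidine or phosphate buffers spanning pH 4.0–7.5. Cut-off: A325 ≤ 0.02 indicates ≥ 1 mg/ml.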

[2] = target: T1, human calcitonin receptor (hCTR2) (Homo sapiens, UniProt P30988); assay: hCTR2 assay: induction of cAMP (AlphaScreen cAMP Assay kit) in COS7 cells expressing hCTR2; format: cell-based
T1 construct: expressed in transfected cells
T1 sequence (P30988 25-474): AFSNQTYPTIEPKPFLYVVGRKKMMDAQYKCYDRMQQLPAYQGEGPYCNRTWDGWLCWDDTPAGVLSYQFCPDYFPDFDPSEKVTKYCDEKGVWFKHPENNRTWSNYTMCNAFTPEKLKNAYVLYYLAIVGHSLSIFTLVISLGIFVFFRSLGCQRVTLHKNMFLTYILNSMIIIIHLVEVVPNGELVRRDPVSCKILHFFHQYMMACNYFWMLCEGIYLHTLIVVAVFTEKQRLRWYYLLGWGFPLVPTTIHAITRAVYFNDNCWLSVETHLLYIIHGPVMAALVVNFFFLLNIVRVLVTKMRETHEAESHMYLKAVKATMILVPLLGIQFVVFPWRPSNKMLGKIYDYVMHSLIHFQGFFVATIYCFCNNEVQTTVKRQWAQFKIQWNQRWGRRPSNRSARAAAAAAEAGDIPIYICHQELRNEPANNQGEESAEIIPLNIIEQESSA
Outline: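 Peptide-induced cAMP in hCTR2-expressing COS7 cells, 15 min at 37° C with phosphodiesterase inhibitor IBMX (100 µM), detected by AlphaScreen; potency from 4PL curves.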

[3] = target: T2, human amylin receptor 3 (hAMYR3) consisting of hCTR2 co-expressed with human Receptor Activity Modifying Protein 3 (hRAMP3) (Homo sapiens, UniProt O60896+P30988); assay: hAMYR3 assay: induction of cAMP (AlphaScreen cAMP Assay kit) in COS7 cells expressing hAMYR3; format: cell-based
T2 construct: expressed in transfected cells
T2 sequence (P30988 25-474): T1 sequence (P30988 25-474)
T2 sequence (O60896 24-148 partner): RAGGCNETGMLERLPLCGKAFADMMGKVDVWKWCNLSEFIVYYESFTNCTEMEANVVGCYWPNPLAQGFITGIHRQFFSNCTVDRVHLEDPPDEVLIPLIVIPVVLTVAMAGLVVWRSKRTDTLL
Outline: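 cAMP accumulation read by AlphaScreen in lysates of RAMP-naive COS7 cells stably transfected with hCTR2 plus hRAMP3. Cells exposed to peptide dilutions for 15 min, 37° C, with 100 µM IBMX; 4PL fitting gave EC50 and efficacy relative to pramlintide.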

Compound	Solubility, Acetate buffer pH 4 [1]	Solubility, Acetate buffer pH 5 [1]	Solubility, Histidine buffer pH 6 [1]	Solubility, Histidine buffer pH 7 [1]	Solubility, Phosphate buffer pH 6 [1]	Solubility, Phosphate buffer pH 7 [1]	Solubility, Phosphate buffer pH 7.5 [1]	EC50 ([2]; cAMP induction in COS7 cells expressing hCTR2, average of a minimum of 3 determinations, read-out: hCTR2 EC50) [nM]	EC50 ([3]; cAMP induction in COS7 cells expressing hAMYR3, average of a minimum of 3 determinations, read-out: hAMY R3 EC50) [nM]	EC50 [2] [nM]	EC50 [3] [nM]
CC[C@H](C)[C@@H](C(=O)N[C@@H](CC(C)C)C(=O)N[C@@H](CO)C(=O)N[C@@H](CO)C(=O)N[C@H](C(=O)N[C@@H](CCC(=O)O)C(=O)N[C@H](C(=O)NCC(=O)N[C@@H](CO)C(=O)N[C@@H](CCC(=O)O)C(=O)N[C@H](C(=O)N1CCC[C@H]1C(N)=O)[C@@H](C)O)C(C)C)[C@@H](C)O)N(C)C(=O)CN(C)C(=O)[C@H](Cc1ccccc1)NC(=O)[C@H](CO)NC(=O)[C@H](CO)NC(=O)[C@H](CO)NC(=O)[C@H](CO)NC(=O)[C@H](CCCNC(=N)N)NC(=O)[C@H](Cc1c[nH]cn1)NC(=O)[C@H](CC(C)C)NC(=O)[C@H](Cc1ccccc1)NC(=O)[C@H](CCC(=O)O)NC(=O)[C@H](C)NC(=O)[C@H](CC(C)C)NC(=O)[C@H](CCCNC(=N)N)NC(=O)[C@H](CCC(N)=O)NC(=O)[C@@H](NC(=O)[C@H](C)NC(=O)[C@@H]1CSSC[C@H](NC(=O)[C@H](CCCNC(=N)N)NC(=O)CC[C@H](NC(=O)CCCCCCCCCCCCCCCCCCC(=O)O)C(=O)O)C(=O)N[C@@H](CC(N)=O)C(=O)N[C@@H]([C@@H](C)O)C(=O)N[C@@H](C)C(=O)N[C@@H]([C@@H](C)O)C(=O)N1)[C@@H](C)O [Compound 77, [19CD]-isoGlu-RC()NTATC()ATQRLAEFLHRSSSSF-Gly(Me)-Ile(Me)-LSSTEVGSETP-NH2] ({C20 diacid-γGlu}-RCNTATCATQRLAEFLHRSSSSF[Sar][NMeI]LSSTEVGSETP-NH2; disulfide 2-7)	SS (SS indicates solubility ≥ 1mg/ml)	II (II indicates solubility ≤ 1 mg/ml)	II (II indicates solubility ≤ 1 mg/ml)	SS (SS indicates solubility ≥ 1mg/ml)	II (II indicates solubility ≤ 1 mg/ml)	SS (SS indicates solubility ≥ 1mg/ml)	SS (SS indicates solubility ≥ 1mg/ml)	0.17	0.24		
CC[C@H](C)[C@@H](C(=O)N[C@@H](CC(C)C)C(=O)N[C@@H](CO)C(=O)N[C@@H](CO)C(=O)N[C@H](C(=O)N[C@@H](CC(N)=O)C(=O)N[C@H](C(=O)NCC(=O)N[C@@H](CO)C(=O)N[C@@H](CC(N)=O)C(=O)N[C@H](C(=O)N1CCC[C@H]1C(N)=O)[C@@H](C)O)C(C)C)[C@@H](C)O)N(C)C(=O)[C@H](C)NC(=O)CN(C)C(=O)[C@H](Cc1ccccc1)NC(=O)[C@H](CC(N)=O)NC(=O)[C@H](CC(N)=O)NC(=O)[C@H](CO)NC(=O)[C@H](CO)NC(=O)[C@H](CCCNC(=N)N)NC(=O)[C@H](Cc1c[nH]cn1)NC(=O)[C@H](CC(C)C)NC(=O)[C@H](Cc1ccccc1)NC(=O)[C@H](CCC(=O)O)NC(=O)[C@H](C)NC(=O)[C@H](CC(C)C)NC(=O)[C@H](CCCNC(=N)N)NC(=O)[C@H](CCC(N)=O)NC(=O)[C@@H](NC(=O)[C@H](C)NC(=O)[C@@H]1CSSC[C@H](NC(=O)[C@H](CCCNC(=N)N)NC(=O)[C@H](CCCCN)NC(=O)CC[C@H](NC(=O)CCCCCCCCCCCCCCCCCCC(=O)O)C(=O)O)C(=O)N[C@@H](CC(N)=O)C(=O)N[C@@H]([C@@H](C)O)C(=O)N[C@@H](C)C(=O)N[C@@H]([C@@H](C)O)C(=O)N1)[C@@H](C)O [Compound 84, [19CD]-isoGlu-KRC()NTATC()ATQRLAEFLHRSSNNF-Gly(Me)-A-Ile(Me)-LSSTNVGSNTP-NH2] ({C20 diacid-γGlu}-KRCNTATCATQRLAEFLHRSSNNF[Sar]A[NMeI]LSSTNVGSNTP-NH2; disulfide 3-8)	SS (SS indicates solubility ≥ 1mg/ml)	SS (SS indicates solubility ≥ 1mg/ml)	SS (SS indicates solubility ≥ 1mg/ml)	SS (SS indicates solubility ≥ 1mg/ml)	SS (SS indicates solubility ≥ 1mg/ml)	SS (SS indicates solubility ≥ 1mg/ml)	SS (SS indicates solubility ≥ 1mg/ml)			0.11	0.1
CC[C@H](C)[C@@H](C(=O)N[C@@H](CC(C)C)C(=O)N[C@@H](CO)C(=O)N[C@@H](CO)C(=O)N[C@H](C(=O)N[C@@H](CC(N)=O)C(=O)N[C@H](C(=O)NCC(=O)N[C@@H](CO)C(=O)N[C@@H](CC(N)=O)C(=O)N[C@H](C(=O)NCC(N)=O)[C@@H](C)O)C(C)C)[C@@H](C)O)N(C)C(=O)[C@H](C)NC(=O)CN(C)C(=O)[C@H](Cc1ccccc1)NC(=O)[C@H](CC(N)=O)NC(=O)[C@H](CC(N)=O)NC(=O)[C@H](CO)NC(=O)[C@H](CO)NC(=O)[C@H](CCCNC(=N)N)NC(=O)[C@H](Cc1c[nH]cn1)NC(=O)[C@H](CC(C)C)NC(=O)[C@H](Cc1ccccc1)NC(=O)[C@H](CCC(=O)O)NC(=O)[C@H](C)NC(=O)[C@H](CC(C)C)NC(=O)[C@H](CCCNC(=N)N)NC(=O)[C@H](CCC(N)=O)NC(=O)[C@@H](NC(=O)[C@H](C)NC(=O)[C@@H]1CSSC[C@H](NC(=O)[C@H](CCCNC(=N)N)NC(=O)CC[C@H](NC(=O)CCCCCCCCCCCCCCCCCCC(=O)O)C(=O)O)C(=O)N[C@@H](CC(N)=O)C(=O)N[C@@H]([C@@H](C)O)C(=O)N[C@@H](C)C(=O)N[C@@H]([C@@H](C)O)C(=O)N1)[C@@H](C)O [Compound 96, [19CD]-isoGlu-RC()NTATC()ATQRLAEFLHRSSNNF-Gly(Me)-A-Ile(Me)-LSSTNVGSNTG-NH2] ({C20 diacid-γGlu}-RCNTATCATQRLAEFLHRSSNNF[Sar]A[NMeI]LSSTNVGSNTG-NH2; disulfide 2-7)	SS (SS indicates solubility ≥ 1mg/ml)	SS (SS indicates solubility ≥ 1mg/ml)	SS (SS indicates solubility ≥ 1mg/ml)	SS (SS indicates solubility ≥ 1mg/ml)	SS (SS indicates solubility ≥ 1mg/ml)	SS (SS indicates solubility ≥ 1mg/ml)	SS (SS indicates solubility ≥ 1mg/ml)			0.34	5.6
CC[C@H](C)[C@@H](C(=O)N[C@@H](CC(C)C)C(=O)N[C@@H](CO)C(=O)N[C@@H](CO)C(=O)N[C@H](C(=O)N[C@@H](CC(N)=O)C(=O)N[C@H](C(=O)NCC(=O)N[C@@H](CO)C(=O)N[C@@H](CC(N)=O)C(=O)N[C@H](C(=O)N[C@@H](C)C(N)=O)[C@@H](C)O)C(C)C)[C@@H](C)O)N(C)C(=O)[C@H](C)NC(=O)CN(C)C(=O)[C@H](Cc1ccccc1)NC(=O)[C@H](CC(N)=O)NC(=O)[C@H](CC(N)=O)NC(=O)[C@H](CO)NC(=O)[C@H](CO)NC(=O)[C@H](CCCNC(=N)N)NC(=O)[C@H](Cc1c[nH]cn1)NC(=O)[C@H](CC(C)C)NC(=O)[C@H](Cc1ccccc1)NC(=O)[C@H](CCC(=O)O)NC(=O)[C@H](C)NC(=O)[C@H](CC(C)C)NC(=O)[C@H](CCCNC(=N)N)NC(=O)[C@H](CCC(N)=O)NC(=O)[C@@H](NC(=O)[C@H](C)NC(=O)[C@@H]1CSSC[C@H](NC(=O)[C@H](CCCNC(=N)N)NC(=O)CC[C@H](NC(=O)CCCCCCCCCCCCCCCCCCC(=O)O)C(=O)O)C(=O)N[C@@H](CC(N)=O)C(=O)N[C@@H]([C@@H](C)O)C(=O)N[C@@H](C)C(=O)N[C@@H]([C@@H](C)O)C(=O)N1)[C@@H](C)O [Compound 97, [19CD]-isoGlu-RC()NTATC()ATQRLAEFLHRSSNNF-Gly(Me)-A-Ile(Me)-LSSTNVGSNTA-NH2] ({C20 diacid-γGlu}-RCNTATCATQRLAEFLHRSSNNF[Sar]A[NMeI]LSSTNVGSNTA-NH2; disulfide 2-7)	SS (SS indicates solubility ≥ 1mg/ml)	SS (SS indicates solubility ≥ 1mg/ml)	SS (SS indicates solubility ≥ 1mg/ml)	SS (SS indicates solubility ≥ 1mg/ml)	SS (SS indicates solubility ≥ 1mg/ml)	SS (SS indicates solubility ≥ 1mg/ml)	SS (SS indicates solubility ≥ 1mg/ml)			0.33	0.68
